The source of these data is patent publication US5342838A, “Phenolic thioetheramides” (G. D. Searle & Co., priority 1993, dated 1994).

One assay deals with T1, 5-lipoxygenase (Rattus norvegicus, UniProt P12527).
T1 construct: supernatant fraction of Rat Basophilic Leukemia Cell Homogenate (RBL-1) serves as a 5-lipoxygenase enzyme source; endogenous in cells; host or cells: RBL-1 (rat basophilic leukemia) cell homogenate, 100,000 x g supernatant
T1 sequence (P12527 1-673): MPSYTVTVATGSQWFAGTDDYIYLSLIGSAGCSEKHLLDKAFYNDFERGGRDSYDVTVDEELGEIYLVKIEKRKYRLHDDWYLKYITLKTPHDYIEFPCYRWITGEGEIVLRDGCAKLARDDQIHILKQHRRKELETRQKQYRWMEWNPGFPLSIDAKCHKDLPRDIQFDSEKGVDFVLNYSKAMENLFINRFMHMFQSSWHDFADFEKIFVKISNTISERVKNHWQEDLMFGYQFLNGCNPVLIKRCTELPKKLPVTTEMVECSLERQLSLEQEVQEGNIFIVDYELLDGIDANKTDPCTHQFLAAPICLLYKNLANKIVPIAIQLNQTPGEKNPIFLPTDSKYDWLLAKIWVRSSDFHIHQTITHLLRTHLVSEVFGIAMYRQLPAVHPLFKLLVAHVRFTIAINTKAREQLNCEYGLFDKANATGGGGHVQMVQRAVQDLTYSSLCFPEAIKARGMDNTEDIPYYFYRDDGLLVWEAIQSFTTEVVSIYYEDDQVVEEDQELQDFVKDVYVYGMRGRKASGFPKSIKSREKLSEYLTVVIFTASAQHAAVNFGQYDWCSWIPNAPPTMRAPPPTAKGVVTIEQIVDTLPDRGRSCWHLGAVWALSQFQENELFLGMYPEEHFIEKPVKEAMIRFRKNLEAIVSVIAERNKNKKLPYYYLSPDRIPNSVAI
The experiment in a line: Inhibition of 5-lipoxygenase, in vitro (5-HETE synthesis, RBL-1 100,000 x g supernatant). The class given is biochemical. The note with it: RBL-1 homogenate supernatant. The procedure: The compounds of the invention are evaluated with respect to 5-lipoxygenaseinhibition according to the following assay procedure.
Inhibition of 5-lipoxygenase, in vitro: anti-inflammatory, anti-allergy activities.
The 100,000 x g supernatant fraction of Rat Basophilic Leukemia Cell Homogenate (RBL-1) serves as a 5-lipoxygenase enzyme source. The enzyme is incubated with [1-^14 C)-arachidonic acid and Ca++ in the presence and absence of test compound. The product of 5-lipoxygenase, 5-hydroxyeicosatetraenoic acid (5-HETE), is separated by thin-layer chromatography and measured by radioactivity. A compound inhibiting 5-HETE synthesis by 30% or more is considered active at that concentration.

Assay [1] relates to FMLP-stimulated human neutrophils (superoxide generation). Put plainly: Human neutrophil superoxide generation, FMLP-stimulated, cytochrome C reduction. Format: cell-based. The note with it: for Effect on FMLP Induced Superoxide: stimulated (% > control) / activation at 50 µM: % above control; for activation at 50 µM / inhibition at 50 µM: Homo sapiens; for activation at 50 µM: stimulated at 50 μM, read-out: Effect on FMLP Induced Superoxide: stimulated (% > control); for inhibition at 50 µM: inhibited at 50 μM, read-out: Effect on FMLP Induced Superoxide: inhibited (% < control). The procedure:
The compounds of the invention are evaluated with respect to superoxide modulating activity according to the following assay procedure:
Human neutrophil superoxide generation:
Superoxide generation by formyl-methionyl-leucyl-phenylalanine (FMLP)-stimulated neutrophils was quantitated by the reduction of cytochrome C (Badwey, J. A., Curnutte, J. T. and Karnovsky, M. L., cis-Polyunsaturated fatty acids induce high levels of superoxide production by human neutrophils. J. Biol. Chem. 256: 12640-12643, 1981.) To 5 million neutrophils in 2.85 ml of Krebs-Ringer phosphate buffer, pH 7.2, 50 ul of inhibitor (in 10% DMSO/buffer), and 50 ul ferricytochrome C (5 mM, stock) were added and preincubated for 3 minutes at 37° C. Absorption measurements at 550 nm were recorded at start of preincubation. Fifty ul FMLP (6 μM, stock) was added to initiate reaction. A plateau was reached within 3 minutes and this reading - initial reading (before addition of FMLP) was used to calculate nanomoles of superoxide generated based on a molar extinction coefficient of 2.1×10^4 cm^-1 mole^-1.
Isolation of human neutrophils:
Human neutrophils were isolated from freshly drawn blood of healthy donors. Two ml of 5% dextran (MW 200,000-300,000) in saline was added to 10 ml aliquots of blood, mixed and placed upright for 45 min. at 37° C. Approx. 8-10 ml of the plasma-white cell suspension from the dextran sedimentation was layered on 3 ml of Ficol-paque in a 15 ml tube and centrifuged at 400 g for 30 min. The supernate, containing plasma and platelets, was discarded by aspiration, and the pellet, containing predominantly neutrophils, was resuspended in 1 ml saline. The suspension was transferred to a clean tube, and pooled with other aliquots of blood treated similarly. The pooled suspension was centrifuged at 350 g for 5 min. and supernate discarded. The pellet was resuspended in 5 ml of 0.05% NaCl with a plastic Pasteur pipette for 25 seconds to lyse contaminating red cells, then 5 ml of 1.75% NaCl added to regain isotonicity. The red cell lysing procedure was repeated, the cells suspended in appropriate buffer (depending on assay) and counted.

For assay [2] the following is noted: versus histamine; cited from earlier work.

The compound `C[C@H](Sc1cc(C(C)(C)C)c(O)c(C(C)(C)C)c1)[C@@H](C)OCC(=O)N(C)CCc1ccccn1` (relative stereo) [Example 14, (±)2S*-[2-[[3,5-bis(1,1-dimethylethyl)-4-hydroxyphenyl]thio]-1R*-methylpropoxy]-N-methyl-N-[2-(2-pyridinyl)ethyl]acetamide] had an IC50 at 5-lipoxygenase of 0.22 µM. Besides, in assay [1] (inhibited at 25-50 μM, % below control), the “Effect on FMLP Induced Superoxide: inhibited (% < control)” value was 57%. Further, the “Effect on FMLP Induced Superoxide: stimulated (% > control)” value (shortened to “Effect … (% > control)”) in assay [1] (stimulated at 1-10 μM) was 171%.
With `C[C@H](Sc1cc(C(C)(C)C)c(O)c(C(C)(C)C)c1)[C@@H](C)SCC(=O)NCc1ccncc1` (relative stereo) [Example 17, (±)2S*-[[[2-[[3,5-bis(1,1-dimethylethyl)-4-hydroxyphenyl]thio]-1R*-methylpropyl]thio]-N-(4-pyridinylmethyl)acetamide], the IC50 at 5-lipoxygenase was 0.2 µM. In assay [1] (stimulated at 1-50 μM), the “Effect … (% > control)” value came out at 60%.
For the compound `C[C@H](Sc1cc(C(C)(C)C)c(O)c(C(C)(C)C)c1)[C@@H](C)OCC(=O)N1CCN(Cc2ccccc2)CC1` (relative stereo) [Example 19, (±)1-[2-[2S*-[[3,5-bis(1,1-dimethylethyl)-4-hydroxyphenyl]thio]-1R*-methylpropoxy]-1-oxoethyl]-4-(phenylmethyl)piperazine], the IC50 against 5-lipoxygenase came out at 0.46 µM. In addition, the “Effect … (% > control)” value in assay [1] (stimulated at 1-50 μM) was found to be 33%.
On 5-lipoxygenase, `CC(=O)c1ccc(N2CCN(C(=O)CS[C@H](C)[C@H](C)Sc3cc(C(C)(C)C)c(O)c(C(C)(C)C)c3)CC2)cc1` (relative stereo) [Example 22, (±) 1-(4-acetylphenyl)-4-[2-[[2S*-[[3,5-bis(1,1-dimethylethyl)-4-hydroxyphenyl]thio]-1R*-methylpropyl]thio]-1-oxoethyl]piperazine] came in with an IC50 of 0.17 µM. For the same compound, the activation at 50 µM in assay [1] (Neutrophil) came out at 17%.
Regarding `C[C@H](Sc1cc(C(C)(C)C)c(O)c(C(C)(C)C)c1)[C@@H](C)OCC(=O)O` (relative stereo) [Formula IV, reference compound], the “Effect on superoxide generation, in words” value in assay [1] (FMLP-stimulated human neutrophils) is “inhibited both superoxide generation and 5-lipoxygenase”. In addition, in assay [1] (Neutrophil, FMLP-stimulated human neutrophils, read-out: Effect on FMLP Induced Superoxide: inhibited superoxide generation, IC50), the IC50 was 11 µM.
Compound `CC(C)(C)c1cc(SCCSCC(=O)NCc2ccccn2)cc(C(C)(C)C)c1O` [Example 13, 2-[[2-[3,5-bis(1,1-dimethylethyl)-4-hydroxyphenyl]thiolethyl]thio]-N-(2-pyridinylmethyl)acetamide] registered an IC50 on 5-lipoxygenase of 0.16 µM. The “Effect … (% > control)” value in assay [1] (stimulated at 1-50 μM) is given as 171%.
Take `CC(C)(C)c1cc(SCCSCC(=O)NCc2cccnc2)cc(C(C)(C)C)c1O` [Example 15, 2-[[2-[[3,5-bis (1,1-dimethylethyl)-4-hydroxyphenyl]thio]ethyl]thio]-N-(3-pyridinylmethyl)acetamide]: the IC50 on 5-lipoxygenase came out at 0.13 µM. The inhibition at 50 µM in assay [1] (Neutrophil, % below control) amounted to 13%. The “Effect … (% > control)” value in assay [1] (stimulated at 1-10 μM) stood at 38%.
`CN(CCc1ccccn1)C(=O)CCSCCSc1cc(C(C)(C)C)c(O)c(C(C)(C)C)c1` [Example 16, 3-[[2-[[3,5-bis(1,1-dimethylethyl)-4-hydroxyphenyl]thio]ethyl]thio]-N-methyl-N-[2-(2-pyridinyl)ethyl]propanamide]: at 5-lipoxygenase, the IC50 was determined as 0.16 µM. Further, the inhibition at 50 µM in assay [1] (Neutrophil, % below control) was 13%. Besides, in assay [1] (stimulated at 1-50 μM), the “Effect … (% > control)” value is on record as 146%.
For the compound `CN1CCN(C(=O)CSCCSc2cc(C(C)(C)C)c(O)c(C(C)(C)C)c2)CC1` [Example 20, 1-[2-[[2-[[3,5-bis(1,1-dimethyethyl)-4-hydroxypheny]thio]ethyl]thio]-1-oxoethyl]-4-methylpiperazine], the IC50 against 5-lipoxygenase worked out at 0.4 µM. The inhibition at 50 µM in assay [1] (Neutrophil, % below control) was determined as 100%. In addition, the “Effect … (% > control)” value in assay [1] (stimulated at 1-25 μM) was found to be 135%.
Consider `CC(C)(C)c1cc(SCCSCCC(=O)N2CCC(N3CCCCC3)CC2)cc(C(C)(C)C)c1O` [Example 21, 1-[3-[[2-[[3,5-bis(1,1-dimethylethyl)-4-hydroxyphenyl]thio]ethyl]thio]-1-oxopropyl]-4-(1-piperidinyl)piperidine], for which the IC50 against 5-lipoxygenase is 0.15 µM. Further, the activation at 50 µM in assay [1] (Neutrophil) was 46%.
Consider `CCCCC/C=C\C\C=C/C=C/C=C/[C@@H](SC[C@H](NC(=O)CC[C@H](N)C(=O)O)C(=O)NCC(=O)O)[C@@H](O)CCCC(=O)O` [LTC4], for which the “potency in causing long lasting bronchoconstricting effects relative to histamine” value in assay [2] was “at least 100 times”.
